# Measured values reported in US20020137929A1, “1 - (3-heterocyclylphenyl) isothiourea, -isourea, -guanidine and -amidine herbicidal agents” (Intellectual Property Department, BASF Aktiengesellschaft, priority 1998, published 2002).
# What was measured:
# [1] = test system: SAGPY (Arrowhead (Pygmaea)); experiment: Preemergence weed control under flooded paddy conditions; type: in vivo, Sagittaria pygmaea; conditions: rated 3-4 weeks after treatment
# In short: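 Visual injury scored 0-9 against control three to four weeks post-treatment, greenhouse-grown. Application: acetone/water (50/50) solutions dosed directly into flood water (1.5-3 cm over silt loam, planted top 0.5 cm), roughly 0.0313 to 0.500 kg/ha active ingredient.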
# AMBEL (Ragweed, Common) [2] = experiment: Preemergence herbicidal evaluation; type: in vivo, Ambrosia artemisifolia; conditions: rated 4-5 weeks after treatment
# In short: (§1)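 Rating at 4–5 wk post-spray on a 0–9 visual scale vs control. Application: aqueous acetone, ~0.0156–0.500 kg/ha, to soil surface after seeding, preemergence.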
# CASOB (Sicklepod) [3] = experiment: Postemergence herbicidal evaluation; type: in vivo, Cassia obtusifolia; conditions: postemergence
# In short: (§2)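 Rate range approx. 0.0156–0.500 kg/ha. Foliar application at 40 psi to ~2-week seedlings; surfactant 0.5% TWEEN 20 in 50/50 acetone/water. Evaluation 4–5 wk post-treatment by 0–9 visual injury score, means of replicate tests.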
# ABUTH (Velvetleaf) = experiment: Preemergence herbicidal evaluation; type: in vivo, Abutilon theophrasti; conditions: rated 4-5 weeks after treatment
# In short: as §1
# [4] = test system: IPOHE (Morningglory, Ivyleaf); experiment: Preemergence herbicidal evaluation; type: in vivo, Ipomoea hederacea; conditions: rated 4-5 weeks after treatment
# In short: as §1
# [5] = test system: IPOHE (Morningglory, Ivyleaf); experiment: Postemergence herbicidal evaluation; type: in vivo, Ipomoea hederacea; conditions: postemergence
# In short: as §2
# [6] = test system: GLXMAW (Soybean, Williams); experiment: Postemergence herbicidal evaluation; type: in vivo, Glycine max, (L.) Merr. cv Williams; conditions: postemergence
# In short: as §2
# ECHCG (Barnyardgrass) = experiment: Postemergence herbicidal evaluation; type: in vivo, Echinochloa crus-galli; conditions: postemergence
# In short: as §2
# AMBEL (Ragweed, Common) [7] = experiment: Postemergence herbicidal evaluation; type: in vivo, Ambrosia artemisifolia; conditions: postemergence
# In short: as §2
# [8] = test system: CHEAL (Lambsquarters, Common); experiment: Preemergence herbicidal evaluation; type: in vivo, Chenopodium album; conditions: rated 4-5 weeks after treatment
# In short: as §1
# CASOB (Sicklepod) [9] = experiment: Preemergence herbicidal evaluation; type: in vivo, Cassia obtusifolia; conditions: rated 4-5 weeks after treatment
# In short: as §1
# [10] = test system: GLXMAW (Soybean, Williams); experiment: Preemergence herbicidal evaluation; type: in vivo, Glycine max, (L.) Merr. cv Williams; conditions: rated 4-5 weeks after treatment
# In short: as §1
# [11] = test system: TRZAWR (Wheat, Winter, cv Riband); experiment: Postemergence herbicidal evaluation; type: in vivo, Triticum aestivum; conditions: postemergence
# In short: as §2
# ORYSAT (Rice, Tebonnet) = experiment: Preemergence herbicidal evaluation; type: in vivo, Oryza sativa, (L.) Tebonnet; conditions: rated 4-5 weeks after treatment
# In short: as §1
# [12] = test system: CHEAL (Lambsquarters, Common); experiment: Postemergence herbicidal evaluation; type: in vivo, Chenopodium album; conditions: postemergence
# In short: as §2
compound,measurement,setting,value
"C[C@H](C(=O)O)N1C(=O)CSC1=Nc1cc(-n2c(=O)cc(C(F)(F)F)n(C)c2=O)c(F)cc1Cl [Compound 70, 2-{{2-Chloro-5-[3,6-dihydro-3-methyl-2,6-dioxo-4-(trifluoromethyl)-1(2H)-pyrimidinyl]-4-fluoro-phenyl}imino}-α-methyl-4-oxo-3-thiazolidineacetic acid, D-]",SAGPY herbicidal effect rating,[1]; 0.0313 kg/ha,4.0
same,SAGPY herbicidal effect rating,[1]; 0.0625 kg/ha,4.0
same,SAGPY herbicidal effect rating,[1]; 0.1250 kg/ha,4.0
same,SAGPY herbicidal effect rating,[1]; 0.2500 kg/ha,4.0
same,Preemergence herbicidal rating AMBEL,"AMBEL (Ragweed, Common) [2]; rate 0.0156 kg/ha",0.0
same,Preemergence herbicidal rating AMBEL,"AMBEL (Ragweed, Common) [2]; rate 0.0313 kg/ha",0.0
same,Preemergence herbicidal rating AMBEL,"AMBEL (Ragweed, Common) [2]; rate 0.0625 kg/ha",0.0
same,Preemergence herbicidal rating AMBEL,"AMBEL (Ragweed, Common) [2]; rate 0.1250 kg/ha",3.0
same,Preemergence herbicidal rating AMBEL,"AMBEL (Ragweed, Common) [2]; rate 0.2500 kg/ha",9.0
same,CASOB herbicidal rating,CASOB (Sicklepod) [3]; rate 0.0158 kg/ha,0.0
same,CASOB herbicidal rating,CASOB (Sicklepod) [3]; rate 0.0315 kg/ha,0.0
same,CASOB herbicidal rating,CASOB (Sicklepod) [3]; rate 0.0630 kg/ha,3.0
same,Preemergence herbicidal rating ABUTH,ABUTH (Velvetleaf); rate 0.0156 kg/ha,0.0
same,Preemergence herbicidal rating ABUTH,ABUTH (Velvetleaf); rate 0.0313 kg/ha,0.0
same,Preemergence herbicidal rating ABUTH,ABUTH (Velvetleaf); rate 0.1250 kg/ha,6.0
same,Preemergence herbicidal rating ABUTH,ABUTH (Velvetleaf); rate 0.2500 kg/ha,9.0
same,Preemergence herbicidal rating IPOHE,[4]; rate 0.0156 kg/ha,0.0
same,Preemergence herbicidal rating IPOHE,[4]; rate 0.0313 kg/ha,0.0
same,Preemergence herbicidal rating IPOHE,[4]; rate 0.0625 kg/ha,0.0
same,Preemergence herbicidal rating IPOHE,[4]; rate 0.1250 kg/ha,1.0
same,Preemergence herbicidal rating IPOHE,[4]; rate 0.2500 kg/ha,5.0
same,IPOHE herbicidal rating,[5]; rate 0.0158 kg/ha,9.0
same,IPOHE herbicidal rating,[5]; rate 0.0315 kg/ha,9.0
same,IPOHE herbicidal rating,[5]; rate 0.0630 kg/ha,9.0
same,GLXMAW herbicidal rating,[6]; rate 0.0158 kg/ha,4.5
same,GLXMAW herbicidal rating,[6]; rate 0.0315 kg/ha,5.5
same,GLXMAW herbicidal rating,[6]; rate 0.0630 kg/ha,7.0
same,ECHCG herbicidal rating,ECHCG (Barnyardgrass); rate 0.0158 kg/ha,0.0
same,ECHCG herbicidal rating,ECHCG (Barnyardgrass); rate 0.0315 kg/ha,2.0
same,ECHCG herbicidal rating,ECHCG (Barnyardgrass); rate 0.0630 kg/ha,9.0
same,AMBEL herbicidal rating,"AMBEL (Ragweed, Common) [7]; rate 0.0158 kg/ha",6.0
same,AMBEL herbicidal rating,"AMBEL (Ragweed, Common) [7]; rate 0.0315 kg/ha",6.0
same,AMBEL herbicidal rating,"AMBEL (Ragweed, Common) [7]; rate 0.0630 kg/ha",7.0
same,Preemergence herbicidal rating CHEAL,[8]; rate 0.0156 kg/ha,2.0
same,Preemergence herbicidal rating CHEAL,[8]; rate 0.0313 kg/ha,9.0
same,Preemergence herbicidal rating CHEAL,[8]; rate 0.0625 kg/ha,9.0
same,Preemergence herbicidal rating CHEAL,[8]; rate 0.1250 kg/ha,9.0
same,Preemergence herbicidal rating CHEAL,[8]; rate 0.2500 kg/ha,9.0
same,Preemergence herbicidal rating CASOB,CASOB (Sicklepod) [9]; rate 0.0156 kg/ha,0.0
same,Preemergence herbicidal rating CASOB,CASOB (Sicklepod) [9]; rate 0.0313 kg/ha,0.0
same,Preemergence herbicidal rating CASOB,CASOB (Sicklepod) [9]; rate 0.0625 kg/ha,0.0
same,Preemergence herbicidal rating CASOB,CASOB (Sicklepod) [9]; rate 0.1250 kg/ha,1.0
same,Preemergence herbicidal rating CASOB,CASOB (Sicklepod) [9]; rate 0.2500 kg/ha,0.0
same,Preemergence herbicidal rating GLXMAW,[10]; rate 0.0156 kg/ha,0.0
same,Preemergence herbicidal rating GLXMAW,[10]; rate 0.0313 kg/ha,0.0
same,Preemergence herbicidal rating GLXMAW,[10]; rate 0.0625 kg/ha,0.0
same,Preemergence herbicidal rating GLXMAW,[10]; rate 0.1250 kg/ha,0.0
same,Preemergence herbicidal rating GLXMAW,[10]; rate 0.2500 kg/ha,2.0
same,TRZAWR herbicidal rating,[11]; rate 0.0158 kg/ha,2.5
same,TRZAWR herbicidal rating,[11]; rate 0.0315 kg/ha,4.0
same,TRZAWR herbicidal rating,[11]; rate 0.0630 kg/ha,5.5
same,Preemergence herbicidal rating ORYSAT,"ORYSAT (Rice, Tebonnet); rate 0.0156 kg/ha",0.0
same,Preemergence herbicidal rating ORYSAT,"ORYSAT (Rice, Tebonnet); rate 0.0313 kg/ha",0.0
same,Preemergence herbicidal rating ORYSAT,"ORYSAT (Rice, Tebonnet); rate 0.0625 kg/ha",0.0
same,Preemergence herbicidal rating ORYSAT,"ORYSAT (Rice, Tebonnet); rate 0.1250 kg/ha",1.0
same,Preemergence herbicidal rating ORYSAT,"ORYSAT (Rice, Tebonnet); rate 0.2500 kg/ha",3.0
same,CHEAL herbicidal rating,[12]; rate 0.0158 kg/ha,4.0
same,CHEAL herbicidal rating,[12]; rate 0.0315 kg/ha,9.0
"CC(C)C[C@@H](C(=O)O)N1C(=O)CSC1=Nc1cc(-n2c(=O)cc(C(F)(F)F)n(C)c2=O)c(F)cc1Cl [Compound 71, α-Isobutyl-2-{{2-chloro-5-[3,6-dihydro-3-methyl-2,6-dioxo-4-(trifluoromethyl)-1(2H)-pyrimidinyl]-4-fluorophenyl}imino}-4-oxo-3-thiazolidineacetic acid, L-]",SAGPY herbicidal effect rating,[1]; 0.1250 kg/ha,0.0
same,SAGPY herbicidal effect rating,[1]; 0.2500 kg/ha,0.0
same,Preemergence herbicidal rating AMBEL,"AMBEL (Ragweed, Common) [2]; rate 0.0156 kg/ha",1.0
same,Preemergence herbicidal rating AMBEL,"AMBEL (Ragweed, Common) [2]; rate 0.0313 kg/ha",2.0
same,Preemergence herbicidal rating AMBEL,"AMBEL (Ragweed, Common) [2]; rate 0.0625 kg/ha",7.0
same,Preemergence herbicidal rating AMBEL,"AMBEL (Ragweed, Common) [2]; rate 0.1250 kg/ha",9.0
same,Preemergence herbicidal rating AMBEL,"AMBEL (Ragweed, Common) [2]; rate 0.2500 kg/ha",9.0
same,CASOB herbicidal rating,CASOB (Sicklepod) [3]; rate 0.0158 kg/ha,2.0
same,CASOB herbicidal rating,CASOB (Sicklepod) [3]; rate 0.0315 kg/ha,3.0
same,CASOB herbicidal rating,CASOB (Sicklepod) [3]; rate 0.0630 kg/ha,4.0
same,Preemergence herbicidal rating ABUTH,ABUTH (Velvetleaf); rate 0.0156 kg/ha,1.0
same,Preemergence herbicidal rating ABUTH,ABUTH (Velvetleaf); rate 0.0313 kg/ha,9.0
same,Preemergence herbicidal rating ABUTH,ABUTH (Velvetleaf); rate 0.0625 kg/ha,9.0
same,Preemergence herbicidal rating ABUTH,ABUTH (Velvetleaf); rate 0.1250 kg/ha,9.0
same,Preemergence herbicidal rating ABUTH,ABUTH (Velvetleaf); rate 0.2500 kg/ha,9.0
same,Preemergence herbicidal rating IPOHE,[4]; rate 0.0156 kg/ha,0.0
same,Preemergence herbicidal rating IPOHE,[4]; rate 0.0313 kg/ha,0.0
same,Preemergence herbicidal rating IPOHE,[4]; rate 0.0625 kg/ha,0.0
same,Preemergence herbicidal rating IPOHE,[4]; rate 0.1250 kg/ha,9.0
same,Preemergence herbicidal rating IPOHE,[4]; rate 0.2500 kg/ha,9.0
same,IPOHE herbicidal rating,[5]; rate 0.0158 kg/ha,9.0
same,IPOHE herbicidal rating,[5]; rate 0.0315 kg/ha,9.0
same,IPOHE herbicidal rating,[5]; rate 0.0630 kg/ha,9.0
same,GLXMAW herbicidal rating,[6]; rate 0.0158 kg/ha,6.5
same,GLXMAW herbicidal rating,[6]; rate 0.0315 kg/ha,7.5
same,GLXMAW herbicidal rating,[6]; rate 0.0630 kg/ha,7.5
same,ECHCG herbicidal rating,ECHCG (Barnyardgrass); rate 0.0158 kg/ha,4.0
same,ECHCG herbicidal rating,ECHCG (Barnyardgrass); rate 0.0315 kg/ha,4.0
same,ECHCG herbicidal rating,ECHCG (Barnyardgrass); rate 0.0630 kg/ha,4.0
same,AMBEL herbicidal rating,"AMBEL (Ragweed, Common) [7]; rate 0.0158 kg/ha",9.0
same,AMBEL herbicidal rating,"AMBEL (Ragweed, Common) [7]; rate 0.0315 kg/ha",9.0
same,AMBEL herbicidal rating,"AMBEL (Ragweed, Common) [7]; rate 0.0630 kg/ha",9.0
same,Preemergence herbicidal rating CHEAL,[8]; rate 0.0156 kg/ha,3.0
same,Preemergence herbicidal rating CHEAL,[8]; rate 0.0313 kg/ha,9.0
same,Preemergence herbicidal rating CHEAL,[8]; rate 0.0625 kg/ha,9.0
same,Preemergence herbicidal rating CHEAL,[8]; rate 0.1250 kg/ha,9.0
same,Preemergence herbicidal rating CHEAL,[8]; rate 0.2500 kg/ha,9.0
same,Preemergence herbicidal rating CASOB,CASOB (Sicklepod) [9]; rate 0.0156 kg/ha,0.0
same,Preemergence herbicidal rating CASOB,CASOB (Sicklepod) [9]; rate 0.0313 kg/ha,0.0
same,Preemergence herbicidal rating CASOB,CASOB (Sicklepod) [9]; rate 0.0625 kg/ha,0.0
same,Preemergence herbicidal rating CASOB,CASOB (Sicklepod) [9]; rate 0.1250 kg/ha,7.0
same,Preemergence herbicidal rating CASOB,CASOB (Sicklepod) [9]; rate 0.2500 kg/ha,9.0
same,Preemergence herbicidal rating GLXMAW,[10]; rate 0.0156 kg/ha,1.0
same,Preemergence herbicidal rating GLXMAW,[10]; rate 0.0313 kg/ha,0.0
same,Preemergence herbicidal rating GLXMAW,[10]; rate 0.0625 kg/ha,1.0
same,Preemergence herbicidal rating GLXMAW,[10]; rate 0.1250 kg/ha,3.0
same,TRZAWR herbicidal rating,[11]; rate 0.0158 kg/ha,2.5
same,TRZAWR herbicidal rating,[11]; rate 0.0315 kg/ha,3.5
same,TRZAWR herbicidal rating,[11]; rate 0.0630 kg/ha,4.5
same,Preemergence herbicidal rating ORYSAT,"ORYSAT (Rice, Tebonnet); rate 0.0156 kg/ha",0.0
same,Preemergence herbicidal rating ORYSAT,"ORYSAT (Rice, Tebonnet); rate 0.0313 kg/ha",0.0
same,Preemergence herbicidal rating ORYSAT,"ORYSAT (Rice, Tebonnet); rate 0.0625 kg/ha",0.0
same,Preemergence herbicidal rating ORYSAT,"ORYSAT (Rice, Tebonnet); rate 0.1250 kg/ha",1.0
same,Preemergence herbicidal rating ORYSAT,"ORYSAT (Rice, Tebonnet); rate 0.2500 kg/ha",3.0
same,CHEAL herbicidal rating,[12]; rate 0.0158 kg/ha,6.0
same,CHEAL herbicidal rating,[12]; rate 0.0315 kg/ha,7.0
